In ChEMBL document CHEMBL5380807, “Imidazo[1,2-a]Pyridine Derivatives as Novel Dual-Target Inhibitors of ABCB1 and ABCG2 for Reversing Multidrug Resistance” (J Med Chem, 2023):
The source made the active and inactive calls. The rule behind the calls is not given here.

What was measured:
K562 [1] = assay: Cytotoxicity against human K562 cells assessed as decrease in cell survival rate at 5 uM incubated for 72 hrs by MTS assay; format: toxicity, cell-based; details: k562, 72 h
K562/A02 [2] = assay: Cytotoxicity against human K562/A02 cells overexpressing ABCB1 assessed as decrease in cell survival rate at 5 uM incubated for 72 hrs by MTS assay; format: toxicity, cell-based; details: k562/a02, 72 h
K562 [3] = assay: Reversal of ABCB1 mediated adriamycin resistance in human K562 cells assessed as reduction in survival rate at 1 uM preincubated for 1 hrs followed by adriamycin addition and measured after 72 hrs by MTS assay; format: functional, cell-based; details: time 73.0 hrs
K562 [4] = assay: Reversal of ABCB1 mediated adriamycin resistance in human K562 cells assessed as reduction in survival rate at 5 uM preincubated for 1 hrs followed by adriamycin addition and measured after 72 hrs by MTS assay; format: functional, cell-based; details: time 73.0 hrs
K562/A02 [5] = assay: Reversal of ABCB1 mediated adriamycin resistance in human K562/A02 cells overexpressing ABCB1 assessed as reduction in survival rate at 1 uM preincubated for 1 hrs followed by adriamycin addition and measured after 72 hrs by MTS assay; format: functional; details: time 73.0 hrs
K562/A02 [6] = assay: Reversal of ABCB1 mediated adriamycin resistance in human K562/A02 cells overexpressing ABCB1 assessed as reduction in survival rate at 5 uM preincubated for 1 hrs followed by adriamycin addition and measured after 72 hrs by MTS assay; format: functional; details: time 73.0 hrs
[7] = Cytotoxicity against human K562 cells assessed as decrease in cell survival rate incubated for 72 hrs by MTS assay; format: toxicity, cell-based
[8] = Cytotoxicity against human K562/A02 cells overexpressing ABCB1 assessed as decrease in cell survival rate incubated for 72 hrs by MTS assay; format: toxicity, cell-based
K562 [9] = assay: Reversal of ABCB1 mediated adriamycin resistance in human K562 assessed as decrease in survival rate at 1.25 to 5 uM preincubated for 1 hrs followed by adriamycin addition and measured after 72 hrs by MTS assay; format: functional, cell-based; details: dose 1.25-5 µM, time 73.0 hrs
K562/A02 [10] = assay: Reversal of ABCB1 mediated adriamycin resistance in human K562/A02 overexpressing ABCB1 assessed as decrease in survival rate at 1.25 to 5 uM preincubated for 1 hrs followed by adriamycin addition and measured after 72 hrs by MTS assay; format: functional, cell-based; details: dose 1.25-5 µM, time 73.0 hrs

SMILES | IC50 at 72 h [7] [µM] | IC50 at 72 h [8] [µM] | other results
COc1cc2c(cc1OC)CN(CC(=O)Nc1ccc(-c3nc4ccccn4c3CN3CCN(c4ccc(OC(F)(F)F)cc4)CC3)cc1)CC2 |  |  | Activity (K562 [1]): Non-Toxic; Activity (K562/A02 [2]): Non-Toxic; Activity (K562 [3]): inactive; Activity (K562 [4]): inactive; Activity (K562/A02 [5]): Active; Activity (K562/A02 [6]): Active
COc1cc2c(cc1OC)CN(Cc1c(-c3ccc(NC(=O)COc4ccccc4Br)cc3)nc3ccccn13)CC2 | > 100 | > 100 | 
COc1cc2c(cc1OC)CN(Cc1c(-c3ccc(NC(=O)COc4ccccc4)cc3)nc3ccccn13)CC2 | > 100 | > 100 | Activity (K562 [9]): inactive; Activity (K562/A02 [10]): Active
COc1cc2c(cc1OC)CN(Cc1c(-c3ccc(NC(=O)CN4CCN(c5ccccc5)CC4)cc3)nc3ccccn13)CC2 | > 100 | > 100 | 
COc1ccc(COCc2c(-c3ccc(NC(=O)CN4CCc5cc(OC)c(OC)cc5C4)cc3)nc3ccccn23)cc1 |  |  | Activity (K562 [1]): Non-Toxic; Activity (K562/A02 [2]): Non-Toxic; Activity (K562 [3]): inactive; Activity (K562 [4]): inactive; Activity (K562/A02 [5]): Active; Activity (K562/A02 [6]): Active
O=C1CCCN1c1ccc(-c2nc3ccccn3c2CN2CCN(c3ccccc3)CC2)cc1 | > 100 | > 100 | 
COc1cc2c(cc1OC)CN(CCC(=O)Nc1ccc(-c3nc4ccccn4c3CN3CCN(c4ccccc4)CC3)cc1)CC2 | 3.31 | 13.6 | Activity (K562 [9]): Active; Activity (K562/A02 [10]): Active
O=C(Cn1cnnc1)Nc1ccc(-c2nc3ccccn3c2CN2CCN(c3ccccc3)CC2)cc1 | > 100 | > 100 | 
CCN(CC)CC(=O)Nc1ccc(-c2nc3ccccn3c2CN2CCc3cc(OC)c(OC)cc3C2)cc1 | > 100 | > 100 | 
COc1cc2c(cc1OC)CN(Cc1c(-c3ccc(NC(=O)COc4cccc([N+](=O)[O-])c4)cc3)nc3ccccn13)CC2 | > 100 | > 100 | 
COc1cc2c(cc1OC)CN(CC(=O)Nc1ccc(-c3nc4ccccn4c3CN3CCOCC3)cc1)CC2 |  |  | Activity (K562 [1]): Non-Toxic; Activity (K562/A02 [2]): Non-Toxic; Activity (K562 [3]): Active; Activity (K562 [4]): Active; Activity (K562/A02 [5]): Active; Activity (K562/A02 [6]): Active
COc1cc2c(cc1OC)CN(Cc1c(-c3ccc(NC(=O)CN4CCN(C)CC4)cc3)nc3ccccn13)CC2 | 50.7 | > 100 | 
COc1cc2c(cc1OC)CN(CC(=O)Nc1ccc(-c3nc4ccccn4c3CN(C)C)cc1)CC2 |  |  | Activity (K562 [1]): Non-Toxic; Activity (K562/A02 [2]): Non-Toxic; Activity (K562 [3]): inactive; Activity (K562 [4]): inactive; Activity (K562/A02 [5]): Active; Activity (K562/A02 [6]): Active
COc1cc2c(cc1OC)CN(Cc1c(-c3ccc(NC(=O)CCN4CCN(c5ccccc5)CC4)cc3)nc3ccccn13)CC2 | 93.1 | 30.6 | 
COc1cc2c(cc1OC)CN(CC(=O)Nc1ccc(-c3nc4ccccn4c3CO)cc1)CC2 |  |  | Activity (K562 [1]): Non-Toxic; Activity (K562/A02 [2]): Non-Toxic; Activity (K562 [3]): inactive; Activity (K562 [4]): inactive; Activity (K562/A02 [5]): inactive; Activity (K562/A02 [6]): inactive
COc1cccc(OCC(=O)Nc2ccc(-c3nc4ccccn4c3CN3CCc4cc(OC)c(OC)cc4C3)cc2)c1 | > 100 | > 100 | 
COc1cc2c(cc1OC)CN(Cc1c(-c3ccc(NC(=O)Cn4cnnc4)cc3)nc3ccccn13)CC2 | > 100 | > 100 | 
CN(C)CC(=O)Nc1ccc(-c2nc3ccccn3c2CN2CCN(c3ccccc3)CC2)cc1 | 25.2 | 51.2 | 
O=C(CN1CCOCC1)Nc1ccc(-c2nc3ccccn3c2CN2CCN(c3ccccc3)CC2)cc1 | > 100 | > 100 | 
COc1cc2c(cc1OC)CN(Cc1c(-c3ccc(NC(=O)/C=C/c4cc(OC)c(OC)c(OC)c4)cc3)nc3ccccn13)CC2 | > 100 | > 100 | 
CCN(CC)CC(=O)Nc1ccc(-c2nc3ccccn3c2CN2CCN(c3ccccc3)CC2)cc1 | 24.3 | 40 | 
C=CCc1ccc(OCC(=O)Nc2ccc(-c3nc4ccccn4c3CN3CCc4cc(OC)c(OC)cc4C3)cc2)c(OC)c1 | > 100 | > 100 | 
COc1cc2c(cc1OC)CN(Cc1c(-c3ccc(NC(=O)COc4cccc5cccnc45)cc3)nc3ccccn13)CC2 | > 100 | > 100 | 
COc1cc2c(cc1OC)CN(CC(=O)Nc1ccc(-c3nc4ccccn4c3CN3CCC(=O)CC3)cc1)CC2 |  |  | Activity (K562 [1]): Non-Toxic; Activity (K562/A02 [2]): Non-Toxic; Activity (K562 [3]): inactive; Activity (K562 [4]): inactive; Activity (K562/A02 [5]): Active; Activity (K562/A02 [6]): Active

SMILES | IC50 at 72 h [7] [µM] | IC50 at 72 h [8] [µM] | other results
O=C(/C=C/c1ccc(F)cc1)Nc1ccc(-c2nc3ccccn3c2CN2CCN(c3ccccc3)CC2)cc1 | > 100 | > 100 | Activity (K562 [9]): inactive; Activity (K562/A02 [10]): Active
COc1cc2c(cc1OC)CN(CC(=O)Nc1ccc(-c3nc4ccccn4c3COCc3ccccc3Cl)cc1)CC2 |  |  | Activity (K562 [1]): Non-Toxic; Activity (K562/A02 [2]): Non-Toxic; Activity (K562 [3]): inactive; Activity (K562 [4]): inactive; Activity (K562/A02 [5]): Active; Activity (K562/A02 [6]): Active
Cc1cccc(/C=C/C(=O)Nc2ccc(-c3nc4ccccn4c3CN3CCN(c4ccccc4)CC3)cc2)c1 | > 100 | > 100 | 
O=C(/C=C/c1ccc([N+](=O)[O-])cc1)Nc1ccc(-c2nc3ccccn3c2CN2CCN(c3ccccc3)CC2)cc1 | 10.7 | 48.7 | 
COc1cc2c(cc1OC)CN(Cc1c(-c3ccc(NC(=O)CN(C)C)cc3)nc3ccccn13)CC2 | > 100 | > 100 | 
O=C(CNCc1ccccc1)Nc1ccc(-c2nc3ccccn3c2CN2CCN(c3ccccc3)CC2)cc1 | 25.8 | 28.8 | Activity (K562 [9]): inactive; Activity (K562/A02 [10]): Active
CN1CCN(CC(=O)Nc2ccc(-c3nc4ccccn4c3CN3CCN(c4ccccc4)CC3)cc2)CC1 | 21.4 | 54.6 | 
COc1cc2c(cc1OC)CN(Cc1c(-c3ccc(NC(=O)COc4ccc(Cl)cc4)cc3)nc3ccccn13)CC2 | > 100 | 83 | Activity (K562 [9]): inactive; Activity (K562/A02 [10]): Active
COc1cc2c(cc1OC)CN(Cc1c(-c3ccc(NC(=O)CN4CCN(c5ccc(OC(F)(F)F)cc5)CC4)cc3)nc3ccccn13)CC2 | 83.7 | 81.2 | 
O=C(/C=C/c1ccc(Cl)cc1)Nc1ccc(-c2nc3ccccn3c2CN2CCN(c3ccccc3)CC2)cc1 | > 100 | > 100 | 
Cc1ccc(/C=C/C(=O)Nc2ccc(-c3nc4ccccn4c3CN3CCN(c4ccccc4)CC3)cc2)cc1 | 32.8 | > 100 | 
O=C(CCn1cnnc1)Nc1ccc(-c2nc3ccccn3c2CN2CCN(c3ccccc3)CC2)cc1 | > 100 | > 100 | 
O=C1CCN1c1ccc(-c2nc3ccccn3c2CN2CCN(c3ccccc3)CC2)cc1 | 10.5 | 45.5 | 
COc1cc2c(cc1OC)CN(Cc1c(-c3ccc(NC(=O)CN4CCOCC4)cc3)nc3ccccn13)CC2 | > 100 | > 100 | 
COc1ccc(OCC(=O)Nc2ccc(-c3nc4ccccn4c3CN3CCc4cc(OC)c(OC)cc4C3)cc2)cc1 | > 100 | > 100 | 
COc1cc2c(cc1OC)CN(Cc1c(-c3ccc(NC(=O)COc4ccc(C)cc4)cc3)nc3ccccn13)CC2 | > 100 | > 100 | Activity (K562 [9]): inactive; Activity (K562/A02 [10]): Active
COc1cc(/C=C/C(=O)Nc2ccc(-c3nc4ccccn4c3CN3CCN(c4ccccc4)CC3)cc2)cc(OC)c1OC | > 100 | > 100 | Activity (K562 [9]): inactive; Activity (K562/A02 [10]): Active
O=C(CCN1CCN(c2ccccc2)CC1)Nc1ccc(-c2nc3ccccn3c2CN2CCN(c3ccccc3)CC2)cc1 | 58.8 | 22.9 | Activity (K562 [9]): inactive; Activity (K562/A02 [10]): Active
O=C(CCCN1CCN(c2ccccc2)CC1)Nc1ccc(-c2nc3ccccn3c2CN2CCN(c3ccccc3)CC2)cc1 | 3.72 | 7.07 | Activity (K562 [9]): Active; Activity (K562/A02 [10]): Active
O=C(/C=C/c1ccccc1)Nc1ccc(-c2nc3ccccn3c2CN2CCN(c3ccccc3)CC2)cc1 | > 100 | > 100 | 
COc1cc2c(cc1OC)CN(Cc1c(-c3ccc(NC(=O)COc4ccc(OC(F)(F)F)cc4)cc3)nc3ccccn13)CC2 | 29.9 | 40.9 | 
O=C(CN1CCN(c2ccccc2)CC1)Nc1ccc(-c2nc3ccccn3c2CN2CCN(c3ccccc3)CC2)cc1 | > 100 | > 100 | 
COc1cc2c(cc1OC)CN(Cc1c(-c3ccc(NC(=O)COc4ccccc4C)cc3)nc3ccccn13)CC2 | > 100 | > 100 | Activity (K562 [9]): inactive; Activity (K562/A02 [10]): Active
